Patent US20240239780A1, “MODIFIED FERROPORTIN INHIBITORS” (Vifor (International) AG, priority 2021, published 2024)

Target: T1, ferroportin (Fpn) (Mus musculus, UniProt Q9JHI9)
T1 construct: endogenous in cells; host or cells: J774 mouse macrophage cell line, induced with Fe(III)NTA
T1 sequence (Q9JHI9 1-570): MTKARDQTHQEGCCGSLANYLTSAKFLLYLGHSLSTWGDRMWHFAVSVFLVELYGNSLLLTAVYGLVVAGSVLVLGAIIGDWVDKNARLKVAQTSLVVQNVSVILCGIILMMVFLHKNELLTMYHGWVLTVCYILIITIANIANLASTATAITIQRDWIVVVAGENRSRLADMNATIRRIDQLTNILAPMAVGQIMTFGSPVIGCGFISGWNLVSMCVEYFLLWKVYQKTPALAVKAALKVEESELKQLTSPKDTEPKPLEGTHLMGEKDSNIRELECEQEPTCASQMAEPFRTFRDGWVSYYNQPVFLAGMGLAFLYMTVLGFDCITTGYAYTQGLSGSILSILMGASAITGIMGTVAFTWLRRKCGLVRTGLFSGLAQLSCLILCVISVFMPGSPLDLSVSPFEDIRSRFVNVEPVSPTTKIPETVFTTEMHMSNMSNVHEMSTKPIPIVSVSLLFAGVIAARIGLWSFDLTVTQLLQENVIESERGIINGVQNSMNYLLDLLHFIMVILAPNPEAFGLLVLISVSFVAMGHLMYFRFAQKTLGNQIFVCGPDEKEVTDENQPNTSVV
Assay: Hepcidin Internalization Assay (J774)
Type: cell-based
Conditions: J774 cells, TMR-hepcidin 25 nM, 2 hours; read-out: IC 50, average (AVE) of multiple measurements, hepcidin internalization assay
Source text: This cellular assay allows quantification of the binding of hepcidin to ferroportin (Fpn) through microscopic detection of internalization of a fluorescently labeled hepcidin into J774 cells. […] Binding of hepcidin to Fpn triggers internalization and degradation of both hepcidin and Fpn. […] Therefore, microscopic detection of cell-associated TMR fluorescence is a measure of hepcidin binding to Fpn and internalization of hepcidin and Fpn. If TMR-hepcidin is prevented from binding to Fpn, cellular TMR fluorescence remains low (Dürrenberger et al, 2013). The effect of small molecular weight Fpn inhibitor compounds in this assay was evaluated in vitro as described below. […] Cat. 655090) and grown at 37° C. with 5% CO2. After overnight incubation, cells were washed 3 times with pre-warmed DMEM w/o phenol red, 30 μl/well of DMEM w/o phenol red was added after the final wash and 10 μl/well of dilution series of test compounds were added in triplicates. […] Cells were incubated in a total volume of 50 μl at 37° C. with 5% CO2 for 2 hours, then Hoechst 33342 dye was added to a final concentration of 0.5 μg/ml to stain nuclei and further incubated for 10 min. at 37° C. with 5% CO2. […] After removal of the paraformaldehyde solution, cells were washed 3 times with PBS leaving 100 μl per well and the plates were sealed with foil plate seal. […] The acquired image data was analysed with the […] analysis software. […] IC50 values were calculated with the Sum(Mean) raw data using “log(inhibitor) vs. response” curve fitting of Prism 5 software (GraphPad Software Inc., version 5.02). For each data set the fit of the “log(inhibitor) vs. response (three parameters)” model was compared to the fit of the “log(inhibitor) vs. response-Variable slope (four parameters)” model and the IC50 data of the preferred model was used.

Row | IC50 [nM] | Compound
1 | 40 | O=C(NCc1ncccc1F)c1coc(CCNCc2nc3cc4ccccc4cc3[nH]2)n1 [compound 1, 2-(2-(((1H-naphtho[2,3-d]imidazol-2-yl)methyl)amino)ethyl)-N-((3-fluoropyridin-2-yl)methyl)oxazole-4-carboxamide]
2 | 350 | O=C(NCc1ncccc1F)c1coc(CCNCc2nc3cnc4ccccc4c3[nH]2)n1 [compound 2, 2-(2-(((3H-imidazo[4,5-c]quinolin-2-yl)methyl)amino)ethyl)-N-((3-fluoropyridin-2-yl)methyl)oxazole-4-carboxamide]
3 | 593 | O=C(NCc1ncccc1F)c1coc(CCNCCc2nc3cnc4ccccc4c3[nH]2)n1 [compound 3, 2-(2-((2-(3H-imidazo[4,5-c]quinolin-2-yl)ethyl)amino)ethyl)-N-((3-fluoropyridin-2-yl)methyl)oxazole-4-carboxamide]
4 | 68 | O=C(NCc1ncccc1F)c1coc(CCNCc2nc3c(ccc4ccccc43)[nH]2)n1 [compound 4, 2-(2-(((3H-naphtho[1,2-d]imidazol-2-yl)methyl)amino)ethyl)-N-((3-fluoropyridin-2-yl)methyl)oxazole-4-carboxamide]
5 | 13 | O=C(NCc1ncccc1F)c1coc(CCNCCc2nc3c(ccc4ccccc43)[nH]2)n1 [compound 5, 2-(2-((2-(3H-naphtho[1,2-d]imidazol-2-yl)ethyl)amino)ethyl)-N-((3-fluoropyridin-2-yl)methyl)oxazole-4-carboxamide]
6 | 1600 | O=C(NCc1ccc2c(ccc3ccccc32)n1)c1coc(CCNCCc2nc3ccccc3[nH]2)n1 [compound 6, 2-(2-((2-(1H-benzo[d]imidazol-2-yl)ethyl)amino)ethyl)-N-(benzo[f]quinolin-3-ylmethyl)oxazole-4-carboxamide]
7 | 1590 | O=C(NCc1nc2ccccc2c2ccccc12)c1coc(CCNCCc2nc3ccccc3[nH]2)n1 [compound 7]
8 | 6700 | O=C(NCc1nc2ccccc2c2ccccc12)c1coc(CCNCCc2nc3c(ccc4ccccc43)[nH]2)n1 [compound 8]
9 | 13900 | O=C(NCc1ccc2c(ccc3ccccc32)n1)c1coc(CCNCCc2nc3c(cnc4ccccc43)[nH]2)n1 [compound 12]
10 | 55 | Cc1cccnc1CNC(=O)c1coc(CCNCCc2nc3c(ccc4ccccc43)[nH]2)n1 [compound 13]
11 | 33 | O=C(NCc1ncccc1Cl)c1coc(CCNCCc2nc3c(ccc4ccccc43)[nH]2)n1 [compound 14]
12 | 33 | COc1cccnc1CNC(=O)c1coc(CCNCCc2nc3c(ccc4ccccc43)[nH]2)n1 [compound 15]
13 | 443 | O=C(NCc1ncccc1C(F)(F)F)c1coc(CCNCCc2nc3c(ccc4ccccc43)[nH]2)n1 [compound 16]
14 | 53 | O=C(NCc1ncccc1F)c1coc(CCNCCc2nc3c(-c4cccnc4)cccc3[nH]2)n1 [compound 18]
15 | 6 | O=C(NCc1ncccc1F)c1coc(CCNCCc2nc3cc(-c4ccccc4)ccc3[nH]2)n1 [compound 19]
16 | 189 | O=C(NCc1ncccc1F)c1coc(CCNCCc2nc3c(-c4ccncc4)cccc3[nH]2)n1 [compound 20]
17 | 144 | O=C(NCc1ncccc1F)c1coc(CCNCCc2nc3c(-c4cccc(Cl)c4)cccc3[nH]2)n1 [compound 28]
18 | 27 | O=C(NCc1ncccc1F)c1coc(CCNCCc2nc3cc(-n4cccc4)ccc3[nH]2)n1 [compound 32]
19 | 7 | O=C(NCc1ncccc1F)c1coc(CCNCCc2nc3cc4c(cc3[nH]2)OCCO4)n1 [compound 34]
20 | 57 | O=C(NCc1ncccc1F)c1coc(CCNCCc2nc3ccc(CN4CCOCC4)cc3[nH]2)n1 [compound 35]
21 | 11 | O=C(NCc1ncccc1F)c1coc(CCNCCc2nc3cc4c(cc3[nH]2)OCO4)n1 [compound 36]
22 | 34 | O=C(NCc1ncccc1F)c1coc(CCNCCc2nc3cccc(C#Cc4ccccc4)c3[nH]2)n1 [compound 37]
23 | 12 | O=C(NCc1ncccc1F)c1coc(CCNCCc2nc3c4c(ccc3[nH]2)CCCC4)n1 [compound 39]
24 | 1040 | O=C(NCc1ncccc1F)c1coc(CCNCCc2nc3ccc(-c4nn[nH]n4)cc3[nH]2)n1 [compound 40]
25 | 9 | O=C(NCc1ncccc1F)c1coc(CCNCCc2nc3cc4ccccc4cc3[nH]2)n1 [compound 43]
26 | 6 | O=C(NCc1ncccc1F)c1coc(CCNCCc2nc3cc(-c4ccccc4Cl)ccc3[nH]2)n1 [compound 44]
27 | 6 | COc1ccccc1-c1ccc2[nH]c(CCNCCc3nc(C(=O)NCc4ncccc4F)co3)nc2c1 [compound 45]

Row | IC50 [nM] | Compound
28 | 7 | O=C(NCc1ncccc1F)c1coc(CCNCCc2nc3cc(-c4ccccc4F)ccc3[nH]2)n1 [compound 46]
29 | 11 | Cc1cccnc1CNC(=O)c1coc(CCNCCc2nc3cc4c(cc3[nH]2)OCCO4)n1 [compound 47]
30 | 26 | COc1cccnc1CNC(=O)c1coc(CCNCCc2nc3cc4c(cc3[nH]2)OCCO4)n1 [compound 48]
31 | 18 | COc1ccccc1-c1ccc2[nH]c(CCNCCc3nc(C(=O)NCc4ncccc4C)co3)nc2c1 [compound 49]
32 | 19 | COc1cccnc1CNC(=O)c1coc(CCNCCc2nc3c4c(ccc3[nH]2)CCCC4)n1 [compound 50]
33 | 17 | COc1ccccc1-c1ccc2[nH]c(CCNCCc3nc(C(=O)NCc4ncccc4OC)co3)nc2c1 [compound 51]
34 | 26 | Cc1cccnc1CNC(=O)c1coc(CCNCCc2nc3cc(-c4ccccc4)ccc3[nH]2)n1 [compound 52]
35 | 16 | COc1cccnc1CNC(=O)c1coc(CCNCCc2nc3cc(-c4ccccc4)ccc3[nH]2)n1 [compound 53]
36 | 37 | COc1cccnc1CNC(=O)c1coc(CCNCCc2nc3cc(-n4cccc4)ccc3[nH]2)n1 [compound 54]
37 | 2 | O=C(NCc1ncccc1Cl)c1coc(CCNCCc2nc3cc4c(cc3[nH]2)OCCO4)n1 [compound 55]
38 | 49 | O=C(NCc1ncccc1C(F)(F)F)c1coc(CCNCCc2nc3cc4c(cc3[nH]2)OCCO4)n1 [compound 56]
39 | 27 | O=C(NCc1ncccc1F)c1coc(CCNCCc2nc3cc(-c4ccc(Cl)cc4)ccc3[nH]2)n1 [compound 57]
40 | 171 | O=C(NCc1ncccc1C(F)(F)F)c1coc(CCNCCc2nc3cc(-n4cccc4)ccc3[nH]2)n1 [compound 58]
41 | 28 | O=C(NCc1ncccc1Cl)c1coc(CCNCCc2nc3cc(-n4cccc4)ccc3[nH]2)n1 [compound 59]
42 | 13 | Cc1ccc(-c2ccc3[nH]c(CCNCCc4nc(C(=O)NCc5ncccc5F)co4)nc3c2)cc1 [compound 60]
43 | 11 | O=C(NCc1ncccc1F)c1coc(CCNCCc2nc3cc(-c4cccc(F)c4)ccc3[nH]2)n1 [compound 61]
44 | 8 | Cc1ccccc1-c1ccc2[nH]c(CCNCCc3nc(C(=O)NCc4ncccc4F)co3)nc2c1 [compound 62]
45 | 8 | COc1cccc(-c2ccc3[nH]c(CCNCCc4nc(C(=O)NCc5ncccc5F)co4)nc3c2)c1 [compound 63]
46 | 10 | COc1ccc(-c2ccc3[nH]c(CCNCCc4nc(C(=O)NCc5ncccc5F)co4)nc3c2)cc1 [compound 64]
47 | 15 | Cc1cccc(-c2ccc3[nH]c(CCNCCc4nc(C(=O)NCc5ncccc5F)co4)nc3c2)c1 [compound 65]
48 | 68 | O=C(NCc1ccccn1)c1coc(CCNCCc2nc3cc(-c4ccc(F)cc4)ccc3[nH]2)n1 [compound 66]
49 | 7 | COCCOc1ccccc1-c1ccc2[nH]c(CCNCCc3nc(C(=O)NCc4ncccc4F)co3)nc2c1 [compound 68]
50 | 61 | O=C(NCc1ccccn1)c1coc(CCNCCc2nc3cc(-c4cccc(F)c4)ccc3[nH]2)n1 [compound 69]
51 | 26 | COc1cccc(-c2ccc3[nH]c(CCNCCc4nc(C(=O)NCc5ccccn5)co4)nc3c2)c1 [compound 70]
52 | 6 | CCc1ccccc1-c1ccc2[nH]c(CCNCCc3nc(C(=O)NCc4ncccc4F)co3)nc2c1 [compound 71]
53 | 2 | O=C(NCc1ncccc1F)c1coc(CCNCCc2nc3cc(C#Cc4ccccc4)ccc3[nH]2)n1 [compound 72]
